Source: article PMC11926245, “Structural recognition and stabilization of tyrosine hydroxylase by the J-domain protein DNAJC12” (Nature Communications, 2025)

Assays:
TH:DNAJC12 complex [1] = biological target: T1, TH:DNAJC12 complex (Homo sapiens, UniProt P07101); assay: TH activity, L-Dopa quantified by HPLC with fluorescence detection; assay type: biochemical
T1 construct: both full-length wild-type, each expressed in E. coli as HisMBP fusion, tags cut with TEV protease; with DnaJ homolog subfamily C member 12

TH:DNAJC12 complex [2] = biological target: T1, TH:DNAJC12 complex; assay: cryo-EM 3D reconstruction ([…] Å map); assay type: binding; settings: Fe(III)-catecholate complex; map EMD-18289, no PDB model deposited; regulatory helix 39-58 density at active sites
TH (TH-WT, hTH1) [3] = biological target: T2, TH (TH-WT, hTH1) (Homo sapiens, UniProt P07101); assay: differential scanning fluorimetry (SYPRO Orange); assay type: binding; settings: 0.23 µM TH tetramer, 9 µM DA, ferrous ammonium sulfate; stabilization
T2 construct: full-length wild-type (C-terminal residue 497), expressed in E. coli as HisMBP fusion from pETMBP1a/hTH1, tags cut with TEV protease

TH:DNAJC12 complex [4] = biological target: T1, TH:DNAJC12 complex; assay: differential scanning fluorimetry (SYPRO Orange); assay type: binding; settings: 0.23 µM TH:DNAJC12 complex, 9 µM DA, ferrous ammonium sulfate; stabilization
TH (TH-WT, hTH1) [5] = biological target: T2, TH (TH-WT, hTH1); assay: TH activity, L-Dopa quantified by HPLC with fluorescence detection; assay type: biochemical

T1 sequence (P07101 1-497 isoform P07101-3): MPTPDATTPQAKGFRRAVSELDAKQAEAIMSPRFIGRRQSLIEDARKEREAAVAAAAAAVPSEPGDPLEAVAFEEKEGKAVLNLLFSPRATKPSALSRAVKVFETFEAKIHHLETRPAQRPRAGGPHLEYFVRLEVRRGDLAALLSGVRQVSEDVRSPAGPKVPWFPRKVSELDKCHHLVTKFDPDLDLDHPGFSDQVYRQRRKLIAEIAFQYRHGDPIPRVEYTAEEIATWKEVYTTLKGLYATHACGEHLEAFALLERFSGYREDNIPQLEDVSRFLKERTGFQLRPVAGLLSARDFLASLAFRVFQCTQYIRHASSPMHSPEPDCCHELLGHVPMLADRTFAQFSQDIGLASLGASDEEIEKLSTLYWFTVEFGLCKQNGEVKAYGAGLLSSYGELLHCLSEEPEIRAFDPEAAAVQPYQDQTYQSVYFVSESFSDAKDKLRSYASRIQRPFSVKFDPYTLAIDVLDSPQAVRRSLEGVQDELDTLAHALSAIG
T1 sequence (Q9UKB3 whole entry partner, the tested form may be a part): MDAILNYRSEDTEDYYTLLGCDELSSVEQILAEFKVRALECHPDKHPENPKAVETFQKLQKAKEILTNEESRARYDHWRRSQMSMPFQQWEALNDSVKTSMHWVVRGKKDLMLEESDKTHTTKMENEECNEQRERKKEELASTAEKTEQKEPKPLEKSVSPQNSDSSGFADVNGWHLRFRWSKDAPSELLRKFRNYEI
T2 sequence (P07101 1-497 isoform P07101-3): as the sequence (P07101 1-497 isoform P07101-3) above

Structure (SMILES): NCCc1ccc(O)c(O)c1 [dopamine]
- IC50 (TH:DNAJC12 complex [1]): 356 ± 103 nM
- cryo-EM 3D reconstruction (5.0 Å map) (TH:DNAJC12 complex [2]): 3D reconstruction of TH:DNAJC12 in the presence of the feedback inhibitor DA (TH(DA):DNAJC12)
- Tm (TH (TH-WT, hTH1) [3]): adding equimolar amounts of DA (per TH subunit) increased the Tm of TH
- Tm (TH:DNAJC12 complex [4]): we also observed a Tm increase for the TH:DNAJC12 complex in the presence of DA
- IC50 (TH (TH-WT, hTH1) [5]): 363 ± 82 nM
